These results are taken from EP0358766A1, “METHOD OF STERILIZING PLANT ANTHERS” (VSESOJUZNY NAUCHNO-ISSLEDOVATELSKY INST. SELSKOKHOZYAISTV. …, priority 1988, dated 1989).

Each structure is given as a SMILES string. Where two headings read alike, the source gives them in different places.

The test system of test [1] is Hirse Sorte Mironovskoye 94. Kind of test: Field test of gametocidal activity, millet Mironovskoye 94. The settings on record: for Prozentsatz des Ansetzens von Samen bei freier Bestäubung: control = 100. The format is in vivo. An excerpt: (§1) Die gametozide Aktivität der erfindungsgemäßen Sterilisationsmittel war in Feldversuchen in verschiedenen bodenklimatischen Zonen mit Teilstücken von 10 m^2 Größe in dreibis viermaliger Wiederholung festgestellt. Jedes Sterilisationsmittel wurde mindenstens 5 Jahre lang geprüft.
(§2) Die Entwicklung der Perioden der Organogenese wird zytologisch überwacht. Die Behandlung von Pflanzen mit dem Sterilisationsmittel erfolgt am Anfang der fünften Periode der Organogenese nach Kupermann.
(§3) Mit dem Ährenschieben verwirklicht man die Isolierung von Hauptähren und anderen Stockwerken in Pergametbeuteln. Bei Weizen und Tritikale werden Einzelisolatoren benutzt. Bei Roggen schließt man je 1 Ähre von […] verschiedenen nebeneinander befindlichen Pflanzen unter einen gemeinsamen Isolator ein. Bei Hirse wird jede Rispe getrennt isoliert. Der Sterilitätsprozentsatz (X) für Weizen, Roggen, Tritikale und Hirse wird nach der Formel [formula] ermittelt.
(§4) Die Kornzahl in nicht isolierten Ähren von Kontrollpflanzen wird bedingt für 100 % Ansetzen bei freier Bestäubung angenommen.
(§5) Um zuverlässige Angaben zu erhalten, verwendet man 20 bis 25 Isolatoren je Wiederholung für Weizen und Tritikale, 10 bis 15 Isolatoren jeder Wiederholung für Roggen und Hirse.
Pflanzen der Hirse Sorte Mironovskoye 94 werden in der V.Periode der Organogenese mit einer 1%igen wäßrigen Emulsion von 1,1,3-Tribrompropan, 1,2,3-Tribrompropan, 1,2-Dibrompropan, 1,2-Dibrom-3-chlorpropan, 1,3-Dibrompropan, 1,1,1,3-Tetrabromheptan, 1,1,3-Tribromheptan, 1,2-Dibromheptan behandelt. Die Emulsion enthält 0,5 Masse% C12-C14--Kalziumalkylbenzolaulfonat und 0,01 Masse% Dimethylsulfoxid als Adjuvans. Der Verbrauch an Präparat beträgt 6 kg/ha bei 600 1 Wasserdurchsatz. Die Prüfergebnisse sind in der Tabelle 15 angegeben. Die gleichen Ergebnisse sind bei der Behandlung der Hirse Sorte Mironovskoye 94 in der VI. Periode der Organogenese erhalten.

The test system of test [2] is Winterweizens Sorte Mironowskaya 808. Kind of test: Field test of gametocidal activity (anther sterilisation), winter wheat Mironowskaya 808. Type of test: in vivo, Weizen. To be noted: for Prozentsatz des Ansetzens von Samen bei freier Bestäubung: control = 100; for pest or weed control at 1 %, 10000 g/ha: read-out: Prozentsatz der Sterilität %.
Test [3] deals with diploidem Roggen Kharkovskaya 55. Kind of test: Field test of gametocidal activity, diploid rye Kharkovskaya 55. The format is in vivo. The settings on record: for Prozentsatz des Ansetzens von Samen bei freier Bestäubung: control = 100.
Source text: as §1, §2, §3, §4, §5
Pflanzen von diploidem Roggen Kharkovskaya 55 werden in der V. Periode der Organogenese mit einer l%igen wäßrigen Emulsion von 1,1,3-Tribrompropan, 1,2,3-Tribrompropan, 1,2-Dibrompropan, 1,1,3-Tribrom-3-chlorpropan, 1,2--Dibrom-3-chlorpropan, 1,1,1,3-Tetrabromheptan, 1,1,3-Tribromheptan bzw. 1,2-Dibromheptan behandelt. Die Emulsion enthält 0,5 Masse% C12-C14-Kalziumalkylbenzolsulfonat und 0,01 Masse% Dimethylformamid als Adjuvans. Der Verbrauch an Präparat beträgt 6 kg/ha bei 600 1 Wasserdurchsatz. Die Prüfergebnisse sind in der Tabelle 13 angegeben. Die gleichen Ergebnisse sind bei der Behandlung von diploidem Roggen Kharkovskaya 55 in der VI. Periode der Organogenese erhalten.

A further test has as its system diploidem Roggen Chulpan. Kind of test: Field test of gametocidal activity, diploid rye Chulpan. Type of test: in vivo. To be noted: for Prozentsatz des Ansetzens von Samen bei freier Bestäubung: control = 100.
Test [4] concerns Sommerweizens Sorte Moskowskaya 35. Description: Field test of gametocidal activity, spring wheat Moskowskaya 35. The format is in vivo, Weizen. To be noted: for Prozentsatz des Ansetzens von Samen bei freier Bestäubung: control = 100.
Setting [5] is: Mironovskoye 94, period V, 1% aqueous emulsion, 6 kg/ha in 600 l water.
Where [6] appears, read: read-out: Prozentsatz der Sterilität.
Setting [7] is: Mironowskaya 808, period V of organogenesis, 1% aqueous emulsion, 10 kg/ha.
[8] abbreviates: Kharkovskaya 55, period V, 1% aqueous emulsion, 6 kg/ha in 600 l water.
Where [9] appears, read: Chulpan, period V, 1% aqueous emulsion, 10 kg/ha.
The mark [10] stands for this setting: Moskowskaya 35, period V, 1% aqueous emulsion, 6 kg/ha in 600 l water.

For `ClCC(Br)CBr` (stereo not drawn) [Beispiel 7, 1,2-Dibrom-3-chlorpropan], the “Kornzahl der Rispe bei freier Bestäubung” value in test [1] (setting [5]) was 202,6. Further, in test [1] (setting [5]), the “Kornzahl der Rispe im Isolator” value is recorded as 0,0. The “Prozentsatz des Ansetzens von Samen bei freier Bestäubung” value is 82,8% in test [1] (setting [5]); 90,6% in test [2] (setting [7]); 87,6% in test [3] (setting [8]); 84,8% with diploidem Roggen Chulpan (setting [9]); 88,5% in test [4] (setting [10]). For the same molecule, the pest or weed control at 6000 g/ha in test [1] (setting [6]), in test [3] (setting [6]) and in test [4] (setting [6]) was 100% in each case. Further, the “Kornzahl der Ähre bei freier Bestäubung” value in test [2] (setting [7]) is listed as 33,8; in test [3] (setting [8]) it was 39,5; in the test with diploidem Roggen Chulpan (setting [9]) it was 42,5; in test [4] (setting [10]) it was 33,8. Further, the “Kornzahl der Ähre im Isolator” value (in test [2] (setting [7]); in test [3] (setting [8]); with diploidem Roggen Chulpan (setting [9]); in test [4] (setting [10])) was 0,0 each time. For the same molecule, the pest or weed control at 1 %, 10000 g/ha in test [2] worked out at 100%. In addition, the pest or weed control at 10000 g/ha in the test on diploidem Roggen Chulpan (setting [6]) worked out at 100%.
For the molecule `CCCCC(Br)CC(Br)(Br)Br` (stereo not drawn) [Beispiel 9, 1,1,1,3-Tetrabromheptan], the “Kornzahl der Rispe bei freier Bestäubung” value in test [1] (setting [5]) is 200,7. In addition, in test [1] (setting [5]), the “Kornzahl der Rispe im Isolator” value is 0,0. Moreover, the “Prozentsatz des Ansetzens von Samen bei freier Bestäubung” value was 81,7% in test [1] (setting [5]); 75,5% in test [2] (setting [7]); 100,0% in test [3] (setting [8]); 97,6% in the test on diploidem Roggen Chulpan (setting [9]); 93,7% in test [4] (setting [10]). The pest or weed control at 6000 g/ha in test [1] (setting [6]) was 100%; in test [3] (setting [6]) it was 100%; in test [4] (setting [6]) it was 99.9%. The “Kornzahl der Ähre bei freier Bestäubung” value in test [2] (setting [7]) is reported as 31,4; in test [3] (setting [8]), 37,1; in the test with diploidem Roggen Chulpan (setting [9]), 48,9; in test [4] (setting [10]), 35,8. In addition, the “Kornzahl der Ähre im Isolator” value in test [2] (setting [7]) is reported as 0,2; in test [3] (setting [8]), 0,0; in the test with diploidem Roggen Chulpan (setting [9]), 0,2; in test [4] (setting [10]) it was 0,1. Also, in test [2], the pest or weed control at 1 %, 10000 g/ha is 99.5%. Moreover, the pest or weed control at 10000 g/ha in the test with diploidem Roggen Chulpan (setting [6]) amounted to 99.6%.
Consider `CCCCC(Br)CC(Br)Br` (stereo not drawn) [Beispiel 10, 1,1,3-Tribromheptan], for which the “Kornzahl der Rispe bei freier Bestäubung” value in test [1] (setting [5]) was 180,1. For the same molecule, the “Kornzahl der Rispe im Isolator” value in test [1] (setting [5]) is on record as 0,0. For the same molecule, the “Prozentsatz des Ansetzens von Samen bei freier Bestäubung” value in test [1] (setting [5]) was 73,6%; in test [2] (setting [7]), 96,2%; in test [3] (setting [8]), 97,8%; in the test with diploidem Roggen Chulpan (setting [9]), 92,4%; in test [4] (setting [10]), 94,7%. Moreover, the percent sterility at 6000 g/ha in test [1] (Mironovskoye 94, period V, 1% aqueous emulsion, 6 kg/ha in 600 l water, read-out: Prozentsatz der Sterilität) amounted to 100%; in test [3] (Kharkovskaya 55, period V, 1% aqueous emulsion, 6 kg/ha in 600 l water, read-out: Prozentsatz der Sterilität), 99.8%; in test [4] (Moskowskaya 35, period V, 1% aqueous emulsion, 6 kg/ha in 600 l water, read-out: Prozentsatz der Sterilität), 99.8%. Further, the “Kornzahl der Ähre bei freier Bestäubung” value is reported as 40,0 in test [2] (setting [7]), 36,2 in test [3] (setting [8]), 46,3 with diploidem Roggen Chulpan (setting [9]) and 36,2 in test [4] (setting [10]). Also, the “Kornzahl der Ähre im Isolator” value in test [2] (setting [7]) is 0,6; in test [3] (setting [8]), 0,1; in the test with diploidem Roggen Chulpan (setting [9]), 0,3; in test [4] (setting [10]), 0,1. Moreover, the pest or weed control at 1 %, 10000 g/ha in test [2] (setting [7]) worked out at 98.4%. For the same molecule, in the test on diploidem Roggen Chulpan (Chulpan, period V, 1% aqueous emulsion, 10 kg/ha, read-out: Prozentsatz der Sterilität), the percent sterility at 10000 g/ha was found to be 99.4%.
